target: T1, cloned human H3 receptors (Homo sapiens, UniProt Q9Y5N1); assay: H3 Receptor Binding (Human); details: cloned human H3 receptors stably expressed in SK-N-MC cells; average of the results obtained
T1 construct: expressed in transfected cells; host or cells: SK-N-MC cells
Procedure: Binding of compounds to the cloned human H3 receptors, stably expressed in SK-N-MC cells, was performed as described by Barbier, A. J. et al. (Br. J. Pharmacol. 2004, 143(5), 649-661). Data for compounds tested in this assay are presented in Table 1 as an average of the results obtained.

T1 sequence (Q9Y5N1 whole entry): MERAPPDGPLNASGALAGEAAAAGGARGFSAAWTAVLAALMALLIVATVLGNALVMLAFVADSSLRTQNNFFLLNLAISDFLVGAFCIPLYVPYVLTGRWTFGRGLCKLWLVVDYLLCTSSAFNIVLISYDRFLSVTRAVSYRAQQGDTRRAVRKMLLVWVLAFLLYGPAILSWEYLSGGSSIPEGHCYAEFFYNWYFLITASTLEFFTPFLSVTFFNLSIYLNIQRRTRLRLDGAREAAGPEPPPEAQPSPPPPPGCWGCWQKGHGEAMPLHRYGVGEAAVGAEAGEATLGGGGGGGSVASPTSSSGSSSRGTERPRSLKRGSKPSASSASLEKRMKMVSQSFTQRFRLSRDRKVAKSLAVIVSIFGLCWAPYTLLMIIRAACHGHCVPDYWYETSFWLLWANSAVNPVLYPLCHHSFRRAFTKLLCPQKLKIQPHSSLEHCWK

Row | Compound | Ki [nM]
1 | O=C(c1ccc2c(c1)CCN(C(=O)c1ccsc1)C2)N1CCN(C2CCC2)CC1 [Example 115, (4-Cyclobutyl-piperazin-1-yl)-[2-(thiophene-3-carbonyl)-1,2,3,4-tetrahydro-isoquinolin-6-yl]-methanone] | 11
2 | O=C(c1ccc(F)cc1)N1CCc2cc(C(=O)N3CCN4CCCCC4C3)ccc2C1 (stereo not drawn) [Example 88, [2-(4-Fluoro-benzoyl)-1,2,3,4-tetrahydro-isoquinolin-6-yl]-(octahydro-pyrido[1,2-a]pyrazin-2-yl)-methanone] | 24
3 | CC(C)(C)C1CCN(C(=O)c2ccc3c(c2)CCN(C2CCCC2)C3)CC1 [Example 193, (4-tert-Butyl-piperidin-1-yl)-(2-cyclopentyl-1,2,3,4-tetrahydro-isoquinolin-6-yl)-methanone] | 240
4 | CC(C)(C)OC(=O)N1CCc2cc(C(=O)N3CCN4CCCCC4C3)ccc2C1 (stereo not drawn) [Example 4, 6-(Octahydro-pyrido[1,2-a]pyrazine-2-carbonyl)-3,4-dihydro-1H-isoquinoline-2-carboxylic acid tert-butyl ester] | 28
5 | O=C(c1ccc2c(c1)CN(C(=O)C1CCCC1)CC2)N1CCCN(C2CCC2)CC1 [Example 37, [7-(4-Cyclobutyl-[1,4]diazepane-1-carbonyl)-3,4-dihydro-1H-isoquinolin-2-yl]-cyclopentyl-methanone] | 1
6 | COc1ccc(C(=O)N2CCc3cc(C(=O)N4CCN(C5CCC5)CC4)ccc3C2)cc1 [Example 112, (4-Cyclobutyl-piperazin-1-yl)-[2-(4-methoxy-benzoyl)-1,2,3,4-tetrahydro-isoquinolin-6-yl]-methanone] | 20
7 | CC(C)(C)C(=O)N1CCc2cc(C(=O)N3CCN(C4CCC4)CC3)ccc2C1 [Example 41, 1-[6-(4-Cyclobutyl-piperazine-1-carbonyl)-3,4-dihydro-1H-isoquinolin-2-yl]-2,2-dimethyl-propan-1-one] | 15
8 | O=C(c1ccc2c(c1)CCN(C(=O)C1CCCCC1)C2)N1CCC(N2CCCCC2)CC1 [Example 157, [6-([1,4′]Bipiperidinyl-1′-carbonyl)-3,4-dihydro-1H-isoquinolin-2-yl]-cyclohexyl-methanone] | 110
9 | O=C(c1ccc2c(c1)CCN(Cc1ccc(Cl)cc1)C2)N1CCN(C2CC2)CC1 [Example 24, [2-(4-Chloro-benzyl)-1,2,3,4-tetrahydro-isoquinolin-6-yl]-(4-cyclopropyl-piperazin-1-yl)-methanone] | 75
10 | CC(C)N1CCN(C(=O)c2ccc3c(c2)CCN(C(=O)c2ccc(Cl)cc2)C3)CC1 [Example 110, [2-(4-Chloro-benzoyl)-1,2,3,4-tetrahydro-isoquinolin-6-yl]-(4-isopropyl-piperazin-1-yl)-methanone] | 47
11 | O=C(c1ccc2c(c1)CCN(C(=O)c1ccc(F)c(Cl)c1)C2)N1CCCN(C2CCC2)CC1 [Example 145, (3-Chloro-4-fluoro-phenyl)-[6-(4-cyclobutyl-[1,4]diazepane-1-carbonyl)-3,4-dihydro-1H-isoquinolin-2-yl]-methanone] | 1
12 | N#Cc1ccc(CN2CCc3cc(C(=O)N4CCN(C5CCC5)CC4)ccc3C2)cc1 [Example 25, 4-[6-(4-Cyclobutyl-piperazine-1-carbonyl)-3,4-dihydro-1H-isoquinolin-2-ylmethyl]-benzonitrile] | 15
13 | O=C(c1ccc2c(c1)CCN(C(=O)C1CCCCC1)C2)N1CCN2CCCCC2C1 (stereo not drawn) [Example 152, Cyclohexyl-[6-(octahydro-pyrido[1,2-a]pyrazine-2-carbonyl)-3,4-dihydro-1H-isoquinolin-2-yl]-methanone] | 9
14 | O=C(c1ccc2c(c1)CCN(C1CCCC1)C2)N1CCN2CCCCC2C1 (stereo not drawn) [Example 192, (2-Cyclopentyl-1,2,3,4-tetrahydro-isoquinolin-6-yl)-(octahydro-pyrido[1,2-a]pyrazin-2-yl)-methanone] | 1
15 | O=C(c1ccc2c(c1)CCNC2)N1CCCCC1 [Example 6, Piperidin-1-yl-(1,2,3,4-tetrahydro-isoquinolin-6-yl)-methanone] | 3000
16 | O=C(c1ccc2c(c1)CCN(C(=O)c1ccc(F)cc1)C2)N1CCCN(C2CCC2)CC1 [Example 134, [6-(4-Cyclobutyl-[1,4]diazepane-1-carbonyl)-3,4-dihydro-1H-isoquinolin-2-yl]-(4-fluoro-phenyl)-methanone] | 1
17 | O=C(c1ccc2c(c1)CCN(C(=O)c1ccc(F)c(O)c1)C2)N1CCCN(C2CCC2)CC1 [Example 141, [6-(4-Cyclobutyl-[1,4]diazepane-1-carbonyl)-3,4-dihydro-1H-isoquinolin-2-yl]-(4-fluoro-3-hydroxy-phenyl)-methanone] | 1
18 | CC(C)(C)C1CCN(C(=O)c2ccc3c(c2)CCN(C2CCC2)C3)CC1 [Example 188, (4-tert-Butyl-piperidin-1-yl)-(2-cyclobutyl-1,2,3,4-tetrahydro-isoquinolin-6-yl)-methanone] | 340

Row | Compound | Ki [nM]
19 | CCC(=O)N1CCc2cc(C(=O)N3CCN(C4CCCC4)CC3)ccc2C1 [Example 63, 1-[6-(4-Cyclopentyl-piperazine-1-carbonyl)-3,4-dihydro-1H-isoquinolin-2-yl]-propan-1-one] | 61
20 | CC(C)N1CCN(C(=O)c2ccc3c(c2)CCN(C(=O)c2ccc(Cl)c(Cl)c2)C3)CC1 [Example 111, [2-(3,4-Dichloro-benzoyl)-1,2,3,4-tetrahydro-isoquinolin-6-yl]-(4-isopropyl-piperazin-1-yl)-methanone] | 24
21 | O=C(c1ccccc1F)N1CCc2cc(C(=O)N3CCC[C@H]3CN3CCCC3)ccc2C1 [Example 56, (S)-(2-Fluoro-phenyl)-[6-(2-Pyrrolidin-1-ylmethyl-pyrrolidine-1-carbonyl)-3,4-dihydro-1H-isoquinolin-2-yl]-methanone] | 23
22 | CC(C)N1CCc2cc(C(=O)N3CCC(C(C)(C)C)CC3)ccc2C1 [Example 176, (4-tert-Butyl-piperidin-1-yl)-(2-isopropyl-1,2,3,4-tetrahydro-isoquinolin-6-yl)-methanone] | 250
23 | O=C(c1ccc2c(c1)CCN(Cc1ccc(C(F)(F)F)cc1)C2)N1CCN(C2CC2)CC1 [Example 23, (4-Cyclopropyl-piperazin-1-yl)-[2-(4-trifluoromethyl-benzyl)-1,2,3,4-tetrahydro-isoquinolin-6-yl]-methanone] | 114
24 | O=C(c1cccc(F)c1)N1CCc2cc(C(=O)N3CCN4CCCCC4C3)ccc2C1 (stereo not drawn) [Example 87, [2-(3-Fluoro-benzoyl)-1,2,3,4-tetrahydro-isoquinolin-6-yl]-(octahydro-pyrido[1,2-a]pyrazin-2-yl)-methanone] | 23
25 | CCS(=O)(=O)N1CCc2cc(C(=O)N3CCN(C4CCC4)CC3)ccc2C1 [Example 100, (4-Cyclobutyl-piperazin-1-yl)-(2-ethanesulfonyl-1,2,3,4-tetrahydro-isoquinolin-6-yl)-methanone] | 35
26 | O=C(c1ccc2c(c1)CCNC2)N1CCN(C2CCCCC2)CC1 [Example 9, (4-Cyclohexyl-piperazin-1-yl)-(1,2,3,4-tetrahydro-isoquinolin-6-yl)-methanone] | 14
27 | O=C(c1ccc2c(c1)CCN(C(=O)c1ccc(F)cc1F)C2)N1CCN(C2CCC2)CC1 [Example 126, (4-Cyclobutyl-piperazin-1-yl)-[2-(2,4-difluoro-benzoyl)-1,2,3,4-tetrahydro-isoquinolin-6-yl]-methanone] | 9
28 | Cc1ccc(C(=O)N2CCc3cc(C(=O)N4CCN(C5CCC5)CC4)ccc3C2)cc1F [Example 127, (4-Cyclobutyl-piperazin-1-yl)-[2-(3-fluoro-4-methyl-benzoyl)-1,2,3,4-tetrahydro-isoquinolin-6-yl]-methanone] | 27
29 | N#Cc1ccc(C(=O)N2CCc3cc(C(=O)N4CCN(C5CCCCC5)CC4)ccc3C2)cc1 [Example 81, 4-[6-(4-Cyclohexyl-piperazine-1-carbonyl)-3,4-dihydro-1H-isoquinoline-2-carbonyl]-benzonitrile] | 65
30 | CO[C@H]1CC[C@@H](C(=O)N2CCc3cc(C(=O)N4CCCN(C5CCC5)CC4)ccc3C2)CC1 [Example 148, cis-[6-(4-Cyclobutyl-[1,4]diazepane-1-carbonyl)-3,4-dihydro-1H-isoquinolin-2-yl]-(4-methoxy-cyclohexyl)-methanone] | 1
31 | CC(C)N1CCCN(C(=O)c2ccc3c(c2)CCN(C(=O)C2CCCCC2)C3)CC1 [Example 162, Cyclohexyl-[6-(4-isopropyl-[1,4]diazepane-1-carbonyl)-3,4-dihydro-1H-isoquinolin-2-yl]-methanone] | 4
32 | CC(C)(C)c1ccc(C(=O)N2CCc3cc(C(=O)N4CCN5CCCCC5C4)ccc3C2)cc1 (stereo not drawn) [Example 98, [2-(4-tert-Butyl-benzoyl)-1,2,3,4-tetrahydro-isoquinolin-6-yl]-(octahydro-pyrido[1,2-a]pyrazin-2-yl)-methanone] | 38
33 | CCCc1ccc(C(=O)N2CCc3cc(C(=O)N4CCCN(C5CCC5)CC4)ccc3C2)cc1 [Example 140, [6-(4-Cyclobutyl-[1,4]diazepane-1-carbonyl)-3,4-dihydro-1H-isoquinolin-2-yl]-(4-propyl-phenyl)-methanone] | 2
34 | CN(C)c1cccc(C(=O)N2CCc3cc(C(=O)N4CCN(C5CCC5)CC4)ccc3C2)c1 [Example 116, [6-(4-Cyclobutyl-piperazine-1-carbonyl)-3,4-dihydro-1H-isoquinolin-2-yl]-(3-dimethylamino-phenyl)-methanone] | 18
35 | COC1CCCC(C(=O)N2CCc3cc(C(=O)N4CCCN(C5CCC5)CC4)ccc3C2)C1 (stereo not drawn) [Example 146, [6-(4-Cyclobutyl-[1,4]diazepane-1-carbonyl)-3,4-dihydro-1H-isoquinolin-2-yl]-(3-methoxy-cyclohexyl)-methanone] | 1
36 | CC(C)(C)c1ccc(C(=O)N2CCc3cc(C(=O)N4CCC[C@H]4CN4CCCC4)ccc3C2)cc1 [Example 49, (S)-(4-tert-Butyl-phenyl)-[6-(2-pyrrolidin-1-ylmethyl-pyrrolidine-1-carbonyl)-3,4-dihydro-1H-isoquinolin-2-yl]-methanone] | 46

Source: US20090099158A1, “TETRAHYDROISOQUINOLINE COMPOUNDS AS MODULATORS OF THE HISTAMINE H3 RECEPTOR” (priority 2007, published 2009)
